Experiments:
Test in all cases: KINOMEscan
Type in all cases: binding
[1] = target: T1, AKT1 (Homo sapiens, UniProt P31749)
T1 construct: purchased Eurofins DiscoverX, LLC; host or cells: E. coli BL21-derived (T7 phage) or HEK-293

[2] = target: T2, FGFR2 (Homo sapiens, UniProt P21802)
T2 construct: purchased Eurofins DiscoverX, LLC; host or cells: E. coli (T7 phage) or HEK-293

[3] = target: T3, CDK7 (Homo sapiens, UniProt P50613)
T3 construct: purchased Eurofins DiscoverX, LLC; host or cells: E. coli BL21-derived (T7 phage) or HEK-293

[4] = target: T4, SNARK (Homo sapiens, UniProt Q9H093)
T4 construct: purchased Eurofins DiscoverX, LLC; host or cells: E. coli BL21-derived host (T7 phage) or HEK-293
T4 sequence (Q9H093 1-628): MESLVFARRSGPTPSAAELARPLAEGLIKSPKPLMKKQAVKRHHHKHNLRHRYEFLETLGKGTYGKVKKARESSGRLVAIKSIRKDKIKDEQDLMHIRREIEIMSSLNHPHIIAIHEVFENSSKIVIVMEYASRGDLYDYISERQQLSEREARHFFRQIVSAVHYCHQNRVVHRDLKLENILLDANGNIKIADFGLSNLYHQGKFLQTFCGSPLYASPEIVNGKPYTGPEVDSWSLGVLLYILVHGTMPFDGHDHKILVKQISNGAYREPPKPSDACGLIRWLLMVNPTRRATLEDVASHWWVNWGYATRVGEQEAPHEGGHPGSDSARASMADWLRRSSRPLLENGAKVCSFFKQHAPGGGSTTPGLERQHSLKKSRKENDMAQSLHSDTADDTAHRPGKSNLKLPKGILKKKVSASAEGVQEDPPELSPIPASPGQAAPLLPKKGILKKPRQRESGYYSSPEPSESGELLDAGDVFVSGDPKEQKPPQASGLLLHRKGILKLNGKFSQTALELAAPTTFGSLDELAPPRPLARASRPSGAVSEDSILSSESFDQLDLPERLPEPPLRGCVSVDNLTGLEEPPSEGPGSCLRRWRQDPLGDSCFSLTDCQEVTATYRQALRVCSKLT

[5] = target: T5, DYRK1B (Homo sapiens, UniProt Q9Y463)
T5 construct: purchased Eurofins DiscoverX, LLC; host or cells: E. coli (T7 phage) or HEK-293

[6] = target: T6, CHEK1 (Homo sapiens, UniProt O14757)
T6 construct: purchased Eurofins DiscoverX, LLC; host or cells: E. coli (T7 phage) or HEK-293
T6 sequence (O14757 1-476): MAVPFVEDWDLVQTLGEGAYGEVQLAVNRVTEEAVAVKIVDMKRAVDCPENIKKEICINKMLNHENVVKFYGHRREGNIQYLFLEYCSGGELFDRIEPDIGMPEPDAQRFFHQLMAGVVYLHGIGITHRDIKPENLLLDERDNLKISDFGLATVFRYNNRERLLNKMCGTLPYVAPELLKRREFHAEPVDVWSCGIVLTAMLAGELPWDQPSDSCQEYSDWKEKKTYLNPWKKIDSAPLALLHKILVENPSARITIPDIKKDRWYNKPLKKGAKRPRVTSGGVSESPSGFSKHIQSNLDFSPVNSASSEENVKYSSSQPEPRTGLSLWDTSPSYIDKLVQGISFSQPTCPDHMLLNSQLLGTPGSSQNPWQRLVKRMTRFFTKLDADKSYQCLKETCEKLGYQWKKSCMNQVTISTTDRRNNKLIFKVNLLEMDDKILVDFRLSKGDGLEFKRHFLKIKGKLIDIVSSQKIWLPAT

[7] = target: T7, PLK3 (Homo sapiens, UniProt Q9H4B4)
T7 construct: purchased Eurofins DiscoverX, LLC; host or cells: E. coli BL21-derived host (T7 phage) or HEK-293

[8] = target: T8, EGFR (Homo sapiens, UniProt P00533)
T8 construct: purchased Eurofins DiscoverX, LLC; host or cells: E. coli (T7 phage) or HEK-293

[9] = target: T9, KIT (Homo sapiens, UniProt P10721)
T9 construct: purchased Eurofins DiscoverX, LLC; host or cells: E. coli (BL21-derived, T7 phage) or HEK-293

[10] = target: T10, MARK3 (Homo sapiens, UniProt P27448)
T10 construct: purchased Eurofins DiscoverX, LLC; host or cells: E. coli (BL21-derived, T7 phage) or HEK-293

[11] = target: T11, GSK3B (Homo sapiens, UniProt P49841)
T11 construct: purchased Eurofins DiscoverX, LLC; host or cells: E. coli (T7 phage) or HEK-293

[12] = target: T12, CSF1R (Homo sapiens, UniProt P07333)
T12 construct: purchased Eurofins DiscoverX, LLC; host or cells: E. coli (T7 phage) or HEK-293
T12 sequence (P07333 20-972): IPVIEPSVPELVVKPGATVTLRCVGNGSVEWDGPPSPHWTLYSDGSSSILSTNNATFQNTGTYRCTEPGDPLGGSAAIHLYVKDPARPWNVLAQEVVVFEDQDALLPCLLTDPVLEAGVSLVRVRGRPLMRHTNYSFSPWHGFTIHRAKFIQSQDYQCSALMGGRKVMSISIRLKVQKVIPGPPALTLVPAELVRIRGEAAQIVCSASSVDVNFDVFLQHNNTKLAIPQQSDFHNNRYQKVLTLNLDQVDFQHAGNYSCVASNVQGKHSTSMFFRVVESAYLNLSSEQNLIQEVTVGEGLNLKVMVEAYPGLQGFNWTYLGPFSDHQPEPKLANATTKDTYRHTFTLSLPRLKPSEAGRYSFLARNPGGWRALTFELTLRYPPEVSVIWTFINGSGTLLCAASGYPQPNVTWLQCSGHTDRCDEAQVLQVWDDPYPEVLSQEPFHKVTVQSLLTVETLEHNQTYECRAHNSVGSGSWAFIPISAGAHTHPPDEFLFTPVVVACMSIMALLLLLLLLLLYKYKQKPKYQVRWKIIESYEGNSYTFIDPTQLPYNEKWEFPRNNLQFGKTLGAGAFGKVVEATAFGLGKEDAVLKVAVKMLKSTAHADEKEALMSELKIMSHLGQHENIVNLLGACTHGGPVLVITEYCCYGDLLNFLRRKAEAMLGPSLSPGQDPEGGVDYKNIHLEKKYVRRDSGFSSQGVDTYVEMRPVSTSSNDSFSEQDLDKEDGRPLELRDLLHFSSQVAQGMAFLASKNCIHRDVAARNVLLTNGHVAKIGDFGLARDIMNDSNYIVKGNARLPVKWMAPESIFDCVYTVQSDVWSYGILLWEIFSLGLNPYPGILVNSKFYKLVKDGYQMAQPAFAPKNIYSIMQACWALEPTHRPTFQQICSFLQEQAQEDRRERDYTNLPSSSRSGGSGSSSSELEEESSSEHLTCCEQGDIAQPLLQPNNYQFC

T10 sequence (P27448 whole entry): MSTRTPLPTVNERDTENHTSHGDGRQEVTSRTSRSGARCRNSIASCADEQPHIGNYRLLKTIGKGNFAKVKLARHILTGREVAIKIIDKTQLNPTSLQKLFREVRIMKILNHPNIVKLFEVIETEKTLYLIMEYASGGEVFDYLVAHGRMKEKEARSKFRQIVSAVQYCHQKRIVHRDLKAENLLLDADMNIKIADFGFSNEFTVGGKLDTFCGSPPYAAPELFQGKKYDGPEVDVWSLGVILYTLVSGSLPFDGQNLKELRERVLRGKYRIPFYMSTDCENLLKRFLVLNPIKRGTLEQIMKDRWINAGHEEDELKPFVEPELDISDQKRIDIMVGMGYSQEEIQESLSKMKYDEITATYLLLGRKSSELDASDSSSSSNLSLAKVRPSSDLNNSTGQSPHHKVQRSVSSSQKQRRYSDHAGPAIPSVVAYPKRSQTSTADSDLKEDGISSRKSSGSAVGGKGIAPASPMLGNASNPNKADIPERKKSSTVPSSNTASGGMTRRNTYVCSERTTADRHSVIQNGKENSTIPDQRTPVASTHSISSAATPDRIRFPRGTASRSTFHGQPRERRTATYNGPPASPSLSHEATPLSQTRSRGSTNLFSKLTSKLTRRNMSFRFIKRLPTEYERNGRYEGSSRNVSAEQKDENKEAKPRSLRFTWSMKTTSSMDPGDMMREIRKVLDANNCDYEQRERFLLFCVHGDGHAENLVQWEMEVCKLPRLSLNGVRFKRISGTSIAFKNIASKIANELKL
T1 sequence (P31749 whole entry): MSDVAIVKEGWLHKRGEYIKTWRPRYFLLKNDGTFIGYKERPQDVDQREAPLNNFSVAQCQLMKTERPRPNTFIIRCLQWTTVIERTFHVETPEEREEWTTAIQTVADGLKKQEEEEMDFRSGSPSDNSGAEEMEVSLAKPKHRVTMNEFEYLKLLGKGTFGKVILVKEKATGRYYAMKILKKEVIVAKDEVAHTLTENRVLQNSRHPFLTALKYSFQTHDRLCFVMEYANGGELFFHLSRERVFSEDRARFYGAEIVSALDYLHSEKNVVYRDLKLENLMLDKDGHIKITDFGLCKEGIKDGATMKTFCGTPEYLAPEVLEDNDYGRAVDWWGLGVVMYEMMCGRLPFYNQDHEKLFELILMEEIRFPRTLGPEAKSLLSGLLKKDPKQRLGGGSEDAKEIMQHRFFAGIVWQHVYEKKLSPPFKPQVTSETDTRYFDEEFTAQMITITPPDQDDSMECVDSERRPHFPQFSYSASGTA
T3 sequence (P50613 whole entry): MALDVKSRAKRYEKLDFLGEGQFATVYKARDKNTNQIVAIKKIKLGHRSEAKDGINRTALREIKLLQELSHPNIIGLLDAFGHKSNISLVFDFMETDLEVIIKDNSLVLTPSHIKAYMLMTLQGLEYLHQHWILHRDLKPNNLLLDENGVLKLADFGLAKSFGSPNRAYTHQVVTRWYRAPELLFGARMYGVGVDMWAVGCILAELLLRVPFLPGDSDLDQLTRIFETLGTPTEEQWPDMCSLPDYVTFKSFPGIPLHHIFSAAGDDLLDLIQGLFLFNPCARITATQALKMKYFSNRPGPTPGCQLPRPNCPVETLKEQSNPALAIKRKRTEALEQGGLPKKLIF
T5 sequence (Q9Y463 whole entry): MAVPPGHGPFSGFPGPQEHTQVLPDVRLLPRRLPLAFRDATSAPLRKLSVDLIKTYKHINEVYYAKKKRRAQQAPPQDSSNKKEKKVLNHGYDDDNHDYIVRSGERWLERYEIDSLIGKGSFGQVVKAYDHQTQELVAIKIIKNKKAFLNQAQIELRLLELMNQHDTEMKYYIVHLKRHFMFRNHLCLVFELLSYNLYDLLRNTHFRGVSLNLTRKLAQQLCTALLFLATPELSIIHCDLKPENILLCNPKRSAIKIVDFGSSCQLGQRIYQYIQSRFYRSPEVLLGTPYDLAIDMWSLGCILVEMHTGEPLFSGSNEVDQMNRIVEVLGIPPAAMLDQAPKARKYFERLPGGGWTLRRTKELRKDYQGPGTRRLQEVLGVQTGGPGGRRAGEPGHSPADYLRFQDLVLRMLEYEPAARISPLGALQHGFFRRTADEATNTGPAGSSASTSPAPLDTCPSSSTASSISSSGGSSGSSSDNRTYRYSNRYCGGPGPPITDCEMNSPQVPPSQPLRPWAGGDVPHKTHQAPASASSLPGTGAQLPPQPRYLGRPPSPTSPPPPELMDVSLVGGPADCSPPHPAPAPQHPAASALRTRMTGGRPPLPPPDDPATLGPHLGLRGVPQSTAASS
T11 sequence (P49841 whole entry): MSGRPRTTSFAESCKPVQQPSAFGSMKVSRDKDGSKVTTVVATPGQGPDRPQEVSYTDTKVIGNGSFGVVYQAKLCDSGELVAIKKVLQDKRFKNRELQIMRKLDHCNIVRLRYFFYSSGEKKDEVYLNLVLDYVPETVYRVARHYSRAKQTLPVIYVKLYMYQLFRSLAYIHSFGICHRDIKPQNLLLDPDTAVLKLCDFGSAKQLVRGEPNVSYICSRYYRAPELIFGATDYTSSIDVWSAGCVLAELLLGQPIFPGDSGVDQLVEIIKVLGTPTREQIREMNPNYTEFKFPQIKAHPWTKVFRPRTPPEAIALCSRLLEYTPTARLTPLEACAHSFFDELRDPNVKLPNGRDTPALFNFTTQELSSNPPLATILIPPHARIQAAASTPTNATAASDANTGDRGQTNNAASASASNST
T8 sequence (P00533 25-1210): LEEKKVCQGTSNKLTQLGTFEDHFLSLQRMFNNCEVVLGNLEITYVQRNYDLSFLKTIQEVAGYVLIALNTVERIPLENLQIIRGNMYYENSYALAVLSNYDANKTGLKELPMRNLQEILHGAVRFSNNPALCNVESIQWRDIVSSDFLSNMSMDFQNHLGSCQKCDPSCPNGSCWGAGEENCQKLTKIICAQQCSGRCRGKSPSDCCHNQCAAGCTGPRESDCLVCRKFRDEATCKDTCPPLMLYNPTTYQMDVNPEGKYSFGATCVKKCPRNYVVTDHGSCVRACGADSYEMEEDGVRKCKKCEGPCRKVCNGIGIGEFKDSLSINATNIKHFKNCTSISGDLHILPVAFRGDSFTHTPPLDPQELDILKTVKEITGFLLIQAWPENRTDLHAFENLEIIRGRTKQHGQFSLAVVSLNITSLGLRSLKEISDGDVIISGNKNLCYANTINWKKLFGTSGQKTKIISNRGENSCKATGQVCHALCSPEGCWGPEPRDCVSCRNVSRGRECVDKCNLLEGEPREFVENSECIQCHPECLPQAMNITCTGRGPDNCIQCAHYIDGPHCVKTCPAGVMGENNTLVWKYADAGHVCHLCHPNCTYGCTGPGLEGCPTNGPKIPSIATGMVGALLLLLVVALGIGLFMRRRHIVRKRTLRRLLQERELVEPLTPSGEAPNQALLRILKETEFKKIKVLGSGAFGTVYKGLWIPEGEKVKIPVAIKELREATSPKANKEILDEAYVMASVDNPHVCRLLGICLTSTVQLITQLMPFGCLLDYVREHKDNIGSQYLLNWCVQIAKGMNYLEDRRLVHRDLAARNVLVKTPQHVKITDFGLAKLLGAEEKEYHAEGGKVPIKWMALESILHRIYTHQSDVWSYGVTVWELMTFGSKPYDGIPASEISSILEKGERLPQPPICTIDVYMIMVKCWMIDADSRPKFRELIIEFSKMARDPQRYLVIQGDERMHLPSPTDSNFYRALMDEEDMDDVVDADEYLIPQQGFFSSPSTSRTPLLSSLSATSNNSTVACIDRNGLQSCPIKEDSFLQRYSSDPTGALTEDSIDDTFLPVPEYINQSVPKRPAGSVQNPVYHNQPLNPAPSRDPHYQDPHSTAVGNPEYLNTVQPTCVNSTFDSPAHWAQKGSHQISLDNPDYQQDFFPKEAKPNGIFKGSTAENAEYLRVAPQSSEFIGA

Row | Structure (SMILES) | RA @ 1000nM [1] [%] | RA @ 10000nM [1] [%] | RA @ 1000nM [2] [%] | RA @ 10000nM [2] [%] | RA @ 1000nM [3] [%] | RA @ 10000nM [3] [%] | RA @ 1000nM [4] [%] | RA @ 10000nM [4] [%] | RA @ 1000nM [5] [%] | RA @ 10000nM [5] [%] | RA @ 1000nM [6] [%] | RA @ 10000nM [6] [%] | RA @ 1000nM [7] [%] | RA @ 10000nM [7] [%] | RA @ 1000nM [8] [%] | RA @ 10000nM [8] [%] | RA @ 1000nM [9] [%] | RA @ 10000nM [9] [%] | RA @ 1000nM [10] [%] | RA @ 10000nM [10] [%] | other results
1 | CN(C)CCNC(=O)c1cc2c(cnn2CC2CCCCC2)cc1Cc1ccc(F)cc1F [Compound 95, 1-(Cyclohexylmethyl)-5-(2,4-difluorobenzyl)-N-(2-(dimethylamino)ethyl)-1H-indazole-6-carboxamide] | 100 | 100 | 100 | 100 | 88 | 77 | 93 | 92 | 95 | 100 | 100 | 100 | 88 | 100 | 100 | 100 | 100 | 100 | 79 | 86 | RA @ 1000nM [11]: 100%; RA @ 10000nM [11]: 80%; RA @ 1000nM [12]: 100%; RA @ 10000nM [12]: 79%
2 | CC(C)Cn1ncc2cc(Cc3ccc(F)cc3F)c(C(=O)NCCN(C)C)cc21 [Compound 94, 5-(2,4-Difluorobenzyl)-N-(2-(dimethylamino)ethyl)-1-isobutyl-1H-indazole-6-carboxamide] | 100 | 75 | 95 | 100 | 79 | 86 | 100 | 93 | 100 | 85 | 100 | 100 | 100 | 97 | 98 | 69 | 100 | 100 | 100 | 100 | RA @ 1000nM [11]: 91%; RA @ 10000nM [11]: 97%; RA @ 1000nM [12]: 100%; RA @ 10000nM [12]: 86%
